This is an account of results in patent US8906925B2, “Pyrido[4,3-B]indoles containing rigid moieties” (Medivation Technologies, Inc., priority 2008, dated 2014).

The target in assay [1] is T1, human recombinant serotonin (5-Hydroxytryptamine) 5-HT2A receptor (Homo sapiens, UniProt P28223).
T1 construct: expressed in transfected cells; host or cells: Chinese hamster ovary (CHO-K1) cells
The experiment in a line: Serotonin 5-HT2A radioligand binding ([3H]Ketanserin). The settings on record: read-out: Inhibition of ligand binding, Serotonin 5-HT2A (percent inhibition of specific binding), compound at 1 μM. On the procedure:
Compounds of the invention were incubated with 0.5 nM [^3H]Ketanserin for 60 min. at 25° C. Non-specific binding was estimated in the presence of 1 μM Mianserin. Receptor proteins were filtered and washed, the filters were then counted to determine [^3H]Ketanserin specifically bound.

For assay [2], the target named is T2, human recombinant serotonin (5-Hydroxytryptamine) 5-HT2C receptor (Homo sapiens, UniProt P28335).
T2 construct: expressed in transfected cells; host or cells: Chinese hamster ovary (CHO-K1) cells
T2 sequence (P28335 33-458): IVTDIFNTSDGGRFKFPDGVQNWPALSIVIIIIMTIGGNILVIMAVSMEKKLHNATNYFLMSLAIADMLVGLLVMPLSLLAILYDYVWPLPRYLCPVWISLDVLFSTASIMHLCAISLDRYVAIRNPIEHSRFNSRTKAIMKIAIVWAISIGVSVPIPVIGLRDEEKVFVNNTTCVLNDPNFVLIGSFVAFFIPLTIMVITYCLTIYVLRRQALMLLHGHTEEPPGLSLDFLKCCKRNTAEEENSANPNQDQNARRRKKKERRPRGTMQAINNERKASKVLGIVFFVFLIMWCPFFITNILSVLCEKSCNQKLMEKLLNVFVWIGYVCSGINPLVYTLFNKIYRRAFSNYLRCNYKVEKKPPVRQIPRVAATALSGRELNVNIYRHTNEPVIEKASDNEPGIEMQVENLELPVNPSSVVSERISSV
The experiment in a line: Serotonin 5-HT2C radioligand binding ([3H]Mesulergine). The settings on record: compound at 1 μM; read-out: Inhibition of ligand binding, Serotonin 5-HT2C (percent inhibition of specific binding). The gist of the method:
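Compounds tested at 1 μM or lower (1% DMSO vehicle) for displacement of 1 nM [3H]Mesulergine over 60 min at 25° C. Specific binding determined by filtration counting, with 1 μM Mianserin defining non-specific binding; values are percent inhibition.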

The target of assay [3] is T3, human recombinant adrenergic α1D receptor (Homo sapiens, UniProt P25100).
T3 construct: expressed in transfected cells; host or cells: human embryonic kidney (HEK-293) cells
T3 sequence (P25100 1-572): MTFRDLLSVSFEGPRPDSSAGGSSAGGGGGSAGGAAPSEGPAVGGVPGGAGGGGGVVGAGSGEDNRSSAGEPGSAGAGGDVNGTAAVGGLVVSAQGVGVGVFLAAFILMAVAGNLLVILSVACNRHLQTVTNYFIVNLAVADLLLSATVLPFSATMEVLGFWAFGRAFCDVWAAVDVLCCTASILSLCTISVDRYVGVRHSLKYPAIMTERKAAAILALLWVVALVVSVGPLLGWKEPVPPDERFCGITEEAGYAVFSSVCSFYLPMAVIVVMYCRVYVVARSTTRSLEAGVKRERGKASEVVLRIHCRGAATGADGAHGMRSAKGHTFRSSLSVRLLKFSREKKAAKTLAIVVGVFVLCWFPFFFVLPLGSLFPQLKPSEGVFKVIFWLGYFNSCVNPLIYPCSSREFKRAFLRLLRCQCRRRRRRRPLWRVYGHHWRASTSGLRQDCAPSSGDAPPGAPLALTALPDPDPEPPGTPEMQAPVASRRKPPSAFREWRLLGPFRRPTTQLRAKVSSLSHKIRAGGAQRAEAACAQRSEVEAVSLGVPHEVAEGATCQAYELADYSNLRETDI
The experiment in a line: Adrenergic α1D radioligand binding ([3H]Prozosin). The settings on record: percent inhibition of specific binding; compound at 1 μM; read-out: Inhibition of ligand binding, Adrenergic α1D. As to the method: Compounds of invention were incubated with 0.6 nM [^3H]Prozosin for 60 min. at 25° C. Non-specific binding was estimated in the presence of 10 μM phentolamine. Receptor proteins were filtered and washed, the filters were then counted to determine [^3H]Prozosin specifically bound. Compounds were screened at 1 μM or lower, using 1% DMSO as vehicle. Biochemical assay results are presented as the percent inhibition of specific binding in Table 9.

In assay [4] the target is T4, human recombinant histamine H2 receptor (Homo sapiens, UniProt P25021).
T4 construct: expressed in transfected cells; host or cells: Chinese hamster ovary (CHO) K1 cells
T4 sequence (P25021 whole entry): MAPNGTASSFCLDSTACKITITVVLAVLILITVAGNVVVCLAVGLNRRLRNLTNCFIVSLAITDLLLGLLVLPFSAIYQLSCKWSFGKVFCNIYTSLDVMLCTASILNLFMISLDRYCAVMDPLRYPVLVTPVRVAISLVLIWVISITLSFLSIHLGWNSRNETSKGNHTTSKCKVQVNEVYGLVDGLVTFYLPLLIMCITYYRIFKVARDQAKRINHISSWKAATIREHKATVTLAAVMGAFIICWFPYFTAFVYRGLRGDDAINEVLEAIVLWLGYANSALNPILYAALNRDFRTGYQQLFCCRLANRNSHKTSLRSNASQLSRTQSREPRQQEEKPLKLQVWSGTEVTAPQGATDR
In words: Histamine H2 radioligand binding ([125I]Aminopotentidine). The settings on record: read-out: Histamine Binding (1 μM) H2, percent inhibition of specific binding, 1 μM. The gist of the method: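 CHO-K1 cells expressing human recombinant H2 receptor, 50 mM phosphate buffer pH 7.4; compounds incubated with 0.1 nM [125I]aminopotentidine for 120 min at 25 °C. Nonspecific binding defined with 3 μM tiotidine; specifically bound radioligand counted after filtration and washing.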

The target in assay [5] is human recombinant serotonin (5-Hydroxytryptamine) 5-HT7 receptor (Homo sapiens, UniProt P34969). The experiment in a line: Serotonin 5-HT7 radioligand binding ([3H]LSD). The settings on record: compound at 1 μM; read-out: Inhibition of ligand binding, Serotonin 5-HT7 (percent inhibition of specific binding). An excerpt: Receptor proteins were filtered and washed, the filters were then counted to determine [^3H]LSD specifically bound.
Chain of human recombinant serotonin (5-Hydroxytryptamine) 5-HT7 receptor (P34969 whole entry): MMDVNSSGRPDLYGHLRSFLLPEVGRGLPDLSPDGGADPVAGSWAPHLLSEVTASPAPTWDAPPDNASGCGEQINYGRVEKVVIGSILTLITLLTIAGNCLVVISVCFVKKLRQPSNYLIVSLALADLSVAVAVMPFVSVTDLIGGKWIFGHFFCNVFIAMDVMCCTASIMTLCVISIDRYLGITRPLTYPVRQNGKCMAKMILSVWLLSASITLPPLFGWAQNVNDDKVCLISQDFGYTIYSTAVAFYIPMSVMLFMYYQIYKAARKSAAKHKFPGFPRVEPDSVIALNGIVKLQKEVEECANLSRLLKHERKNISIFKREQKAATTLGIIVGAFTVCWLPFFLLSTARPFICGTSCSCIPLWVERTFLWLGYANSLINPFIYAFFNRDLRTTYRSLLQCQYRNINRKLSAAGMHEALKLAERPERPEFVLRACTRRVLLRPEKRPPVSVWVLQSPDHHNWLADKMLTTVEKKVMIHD

T1 sequence (P28223 whole entry): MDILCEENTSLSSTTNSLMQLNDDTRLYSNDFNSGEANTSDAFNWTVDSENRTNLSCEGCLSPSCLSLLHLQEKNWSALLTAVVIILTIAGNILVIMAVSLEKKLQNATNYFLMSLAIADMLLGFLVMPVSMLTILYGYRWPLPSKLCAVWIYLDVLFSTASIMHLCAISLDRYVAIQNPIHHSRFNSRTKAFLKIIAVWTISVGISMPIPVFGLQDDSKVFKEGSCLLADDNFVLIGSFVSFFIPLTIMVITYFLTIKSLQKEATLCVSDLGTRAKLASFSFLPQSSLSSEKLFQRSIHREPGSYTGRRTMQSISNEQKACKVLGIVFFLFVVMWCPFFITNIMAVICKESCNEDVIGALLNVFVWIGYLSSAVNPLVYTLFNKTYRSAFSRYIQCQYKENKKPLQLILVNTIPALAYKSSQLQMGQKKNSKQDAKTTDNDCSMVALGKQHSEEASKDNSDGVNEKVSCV

`CN1CCc2c(c3cc(Cl)ccc3n2C/C=C/c2ccc(F)cc2)C1` [Compound 126, 5-(4-fluorocinnamyl)-8-chloro-2,3,4,5-tetrahydro-2-methyl-1H-pyrido[4,3-b]indole]: the inhibition at 1 µM in assay [1] was 102%; in assay [2], 84%; in assay [3], 50%; in assay [4], 85%.

As to `Cc1ccc2c(c1)c1c(n2CC(O)c2ccc(C)nc2)CCN(C)C1` (centres unmarked) [Compound 48, 2-(2,8-dimethyl-3,4-dihydro-1H-pyrido[4,3-b]indol-5(2H)-yl)-1-(6-methylpyridin-3-yl)ethanol], the inhibition at 1 µM turned out to be 73% in assay [1], 67% in assay [2], 45% in assay [3] and 47% in assay [4].

For the compound `Cc1ccc2c(c1)c1c(n2CC(C)(O)c2ccncc2)CCN(C)C1` (centres unmarked) [Compound 62, 1-(1,2,3,4-tetrahydro-2,8-dimethylpyrido[4,3-b]indol-5-yl)-2-(pyridin-4-yl)propan-2-ol], the inhibition at 1 µM in assay [1] turned out to be 88%; in assay [2] it was 89%; in assay [3] it was 82%; in assay [4] it was 43%.

With `COc1ccc(C(C)(O)Cn2c3c(c4cc(C)ccc42)CN(C)CC3)cc1F` (centres unmarked) [Compound 173, 1-(2,8-dimethyl-3,4-dihydro-1H-pyrido[4,3-b]indol-5(2H)-yl)-2-(3-fluoro-4-methoxyphenyl)propan-2-ol], the inhibition at 1 µM stood at 103% in assay [5], 98% in assay [2], 58% in assay [3] and 78% in assay [4].

For the compound `COc1ccc(C(C)(O)Cn2c3c(c4cc(Cl)ccc42)CN(C)CC3)cc1` (centres unmarked) [Compound 57, 1-(8-chloro-1,2,3,4-tetrahydro-2-methylpyrido[4,3-b]indol-5-yl)-2-(4-methoxyphenyl)propan-2-ol], the inhibition at 1 µM in assay [1] came to 95%; in assay [2], 86%; in assay [3] it was 84%; in assay [4], 82%.

Take `CN1CCc2c(c3cc(Cl)ccc3n2C2=C(c3cccnc3)CCCC2)C1` [Compound No. 166, 8-chloro-2-methyl-5-(2-(pyridin-3-yl)cyclohex-1-enyl)-2,3,4,5-tetrahydro-1H-pyrido[4,3-b]indole]: the inhibition at 1 µM amounted to 46% in assay [1], 46% in assay [2], 28% in assay [3] and 56% in assay [4].

On to `C=C(Cn1c2c(c3cc(Cl)ccc31)CN(C)CC2)c1ccc(OC)c(F)c1` [Compound 140, 8-chloro-5-(2-(3-fluoro-4-methoxyphenyl)allyl)-2,3,4,5-tetrahydro-2-methyl-1H-pyrido[4,3-b]indole], for which the inhibition at 1 µM in assay [1] came to 98%; in assay [2], 98%; in assay [3], 84%; in assay [4] it was 99%.

With `CN1CCc2c(c3cc(Cl)ccc3n2CC(C)(O)c2ccncc2)C1` (centres unmarked) [Compound 63, 1-(8-chloro-1,2,3,4-tetrahydro-2-methylpyrido[4,3-b]indol-5-yl)-2-(pyridin-4-yl)propan-2-ol], the inhibition at 1 µM came out at 95% in assay [1], 95% in assay [2], 84% in assay [3] and 53% in assay [4].

As for `Cc1ccc2c(c1)c1c(n2CC(C)(O)c2ccc(C)nc2)CCN(C)C1` (centres unmarked) [Compound 52, 1-(1,2,3,4-tetrahydro-2,8-dimethylpyrido[4,3-b]indol-5-yl)-2-(6-methylpyridin-3-yl)propan-2-ol], the inhibition at 1 µM in assay [1] came out at 83%; in assay [2] it was 87%; in assay [3], 39%; in assay [4], 51%.

For `Cc1ccc(C(C)(O)Cn2c3c(c4cc(Cl)ccc42)CN(C)CC3)cn1` (centres unmarked) [Compound 47, 1-(8-chloro-1,2,3,4-tetrahydro-2-methylpyrido[4,3-b]indol-5-yl)-2-(6-methylpyridin-3-yl)propan-2-ol], the inhibition at 1 µM in assay [1] came out at 84%; in assay [2] it was 81%; in assay [3], 82%; in assay [4], 48%.

Regarding `CN1CCc2c(c3cc(Cl)ccc3n2CC(C)(O)c2cccnc2)C1` (centres unmarked) [Compound 61, 1-(8-chloro-1,2,3,4-tetrahydro-2-methylpyrido[4,3-b]indol-5-yl)-2-(pyridin-3-yl)propan-2-ol], the inhibition at 1 µM turned out to be 77% in assay [1], 90% in assay [2], 87% in assay [3] and 41% in assay [4].

In the case of `COc1ccc(C(C)(O)Cn2c3c(c4cc(Cl)ccc42)CN(C)CC3)cc1F` (centres unmarked) [Compound 59, 1-(8-chloro-1,2,3,4-tetrahydro-2-methylpyrido[4,3-b]indol-5-yl)-2-(3-fluoro-4-methoxyphenyl)propan-2-ol], the inhibition at 1 µM in assay [1] amounted to 96%; in assay [2], 99%; in assay [3], 81%; in assay [4], 58%.

Take `COc1ccc(/C(C)=C/n2c3c(c4cc(Cl)ccc42)CN(C)CC3)cc1` [Compound 92, (E)-8-chloro-2,3,4,5-tetrahydro-5-(2-(4-methoxyphenyl)prop-1-enyl)-2-methyl-1H-pyrido[4,3-b]indole]: the inhibition at 1 µM stood at 100% in assay [1], 91% in assay [2], 99% in assay [3] and 99% in assay [4].

With `COc1ccc(/C(C)=C/n2c3c(c4cc(Cl)ccc42)CN(C)CC3)cc1F` [Compound 93, (E)-8-chloro-5-(2-(3-fluoro-4-methoxyphenyl)prop-1-enyl)-2,3,4,5-tetrahydro-2-methyl-1H-pyrido[4,3-b]indole], the inhibition at 1 µM in assay [1] is 100%; in assay [2] it was 99%; in assay [3], 96%; in assay [4] it was 100%.

For `CN1CCc2c(c3cc(Cl)ccc3n2C/C=C/c2ccncc2)C1` [Compound 127, 8-chloro-2,3,4,5-tetrahydro-2-methyl-5-((E)-3-(pyridin-4-yl)allyl)-1H-pyrido[4,3-b]indole], the inhibition at 1 µM in assay [1] stood at 84%; in assay [2], 72%; in assay [3] it was 46%; in assay [4] it was 22%.

`C=C(Cn1c2c(c3cc(Cl)ccc31)CN(C)CC2)c1cccnc1` [Compound 133, 8-chloro-2,3,4,5-tetrahydro-2-methyl-5-(2-(pyridin-3-yl)allyl)-1H-pyrido[4,3-b]indole]: the inhibition at 1 µM amounted to 96% in assay [1], 96% in assay [2], 55% in assay [3] and 60% in assay [4].

In the case of `Cc1ccc2c(c1)c1c(n2/C=C/c2ccc(C)nc2)CCN(C)C1` [compound 95, 2,3,4,5-tetrahydro-2,8-dimethyl-5-((E)-2-(6-methylpyridin-3-yl)vinyl)-1H-pyrido[4,3-b]indole], the inhibition at 1 µM in assay [1] was 91%; in assay [2], 91%; in assay [3] it was 89%; in assay [4], 41%.

The term inhibition denotes the drop in the measured response relative to a control, in per cent.
